Marks after values point to notes of the source that are not given here.
How the values were obtained:
apoE KO mice [1] = experiment: Plasma lipid measurement after myriocin administration; assay type: in vivo, mouse; conditions: for Plasma PC: PC = total phospholipid minus SM; for Plasma SM: n=7; for PC/SM ratio increased / plasma PC levels increased / plasma SM levels decreased: vs control; for PC/SM ratio increased / plasma PC levels increased: p<0.0001
Procedure: (§1) Eight-week-old apoE KO micewere purchased from The Jackson Laboratory (Bar Harbor, Me.). Myriocin (0.3 mg/kg) (Biomol Research Laboratories Inc.) or phosphate buffered saline was injected intraperitoneally every other day for 8 weeks. The animals were on Purina Rodent Chow (catalog number 5001) or a high fat, high cholesterol diet (20% milk fat and 0.15% cholesterol; Harlan Teklad, Madison, Wis.).
(§2) Fasting plasma was collected for fast protein liquid chromatography (FPLC) separation and lipid measurement. Total cholesterol, phospholipids and triglyceride inplasma, and lipoproteins were assayed by enzymatic methods (WakoPure Chemical Industries Ltd., Osaka, Japan). Plasma sphingomyelin was measured as described previously (JBC13). PC concentration was obtained by subtracting SM from total phospholipid concentration. Apolipoprotein analysis using SDS-PAGE was also done as describedpreviously (JBC 14).

apoE KO mice [2] = conditions: oral myriocin, high cholesterol diet; cited from earlier work
[3] = cited from earlier work
SPT = target: T1, SPT (Mus musculus, UniProt O35704+P97363); experiment: SPT activity in liver of myriocin-treated apoE KO mice; assay type: in vivo; conditions: myriocin 0.3 mg/kg intraperitoneally every other day for 8 weeks
T1 construct: myriocin treated mice had 50% less SPT activity in the liver than the controls; from tissue; host or cells: liver of apoE KO mice (The Jackson Laboratory) treated in vivo with myriocin
T1 sequence (O35704 1-473): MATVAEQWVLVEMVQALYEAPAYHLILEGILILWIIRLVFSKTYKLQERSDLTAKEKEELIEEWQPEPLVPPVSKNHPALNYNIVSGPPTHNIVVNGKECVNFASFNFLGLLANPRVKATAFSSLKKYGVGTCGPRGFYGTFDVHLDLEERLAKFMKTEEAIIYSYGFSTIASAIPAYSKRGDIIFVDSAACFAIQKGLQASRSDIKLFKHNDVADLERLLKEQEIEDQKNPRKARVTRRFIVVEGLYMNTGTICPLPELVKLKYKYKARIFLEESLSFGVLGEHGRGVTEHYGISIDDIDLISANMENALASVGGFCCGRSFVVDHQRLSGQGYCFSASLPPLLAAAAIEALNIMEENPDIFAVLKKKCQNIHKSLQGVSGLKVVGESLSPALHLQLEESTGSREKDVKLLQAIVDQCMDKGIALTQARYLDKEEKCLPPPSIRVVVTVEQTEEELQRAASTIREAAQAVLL
T1 sequence (P97363 1-560): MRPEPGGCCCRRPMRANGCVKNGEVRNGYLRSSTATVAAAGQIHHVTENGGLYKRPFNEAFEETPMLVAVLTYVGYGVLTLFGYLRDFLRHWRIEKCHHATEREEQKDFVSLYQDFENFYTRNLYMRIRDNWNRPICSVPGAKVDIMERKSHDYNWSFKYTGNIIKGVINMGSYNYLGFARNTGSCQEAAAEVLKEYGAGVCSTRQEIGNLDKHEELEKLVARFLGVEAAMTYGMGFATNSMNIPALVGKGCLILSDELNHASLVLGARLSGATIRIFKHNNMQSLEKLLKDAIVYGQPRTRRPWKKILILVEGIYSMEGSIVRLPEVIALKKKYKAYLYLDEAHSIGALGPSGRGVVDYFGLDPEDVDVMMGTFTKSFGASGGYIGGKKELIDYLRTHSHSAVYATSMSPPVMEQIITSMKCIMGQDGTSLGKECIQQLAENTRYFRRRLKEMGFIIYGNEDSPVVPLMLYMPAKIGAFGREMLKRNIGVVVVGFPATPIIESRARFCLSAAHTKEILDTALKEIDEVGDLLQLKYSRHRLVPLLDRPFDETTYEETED
T1 sequence (Q8R207 1-71 partner): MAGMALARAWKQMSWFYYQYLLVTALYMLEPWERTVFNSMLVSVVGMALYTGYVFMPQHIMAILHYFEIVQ
Procedure: Each mRNA level was expressed as a ratio to β-Actin mRNA. Liver tissues from Sptlc1 and Sptlc2-deficient, as well as wild type, mice were homogenized, and SPT activity was measured with ^3H-serine and palmitoyl-coenzyme A for substrates, as previously described (15).
as §1
In the present invention, two groups of 8-week-old apoE KO mice were utilized. Group 1 (n=7) and group 2 (n=7) animals were injected with 100 μl of myriocin (0.3 mg/kg) or phosphate-buffered saline, respectively, every other day for 8 weeks. As expected, myriocin treated mice had 50% less SPT activity in the liver than the controls.

T-lymphocyte populations = conditions: myriocin 1 mg/kg (but not 0.3 mg/kg); cited from earlier work
apoE KO mice [4] = experiment: Apolipoprotein analysis using SDS-PAGE; assay type: in vivo, mouse
Procedure: as §2

apoE KO mice [5] = experiment: FPLC lipid distribution among lipoproteins with or without myriocin; assay type: in vivo, mouse
Procedure: Aliquots of 200 μl of pooled plasma from mice (n=7) with or without myriocin treatment were analyzed by FPLC (V, VLDL; L, LDL; and H, HDL). An aliquot of each fraction was used for the determination of SM (FIG. 6A), PC (FIG. 6B), and cholesterol (FIG. 6C).
Aliquots of 200 μl of pooled plasma from mice (n=7) with or without myriocin treatment were analyzed by FPLC (V, VLDL; L, LDL; and H, HDL). An aliquot of each fraction was used for the determination of SM (FIG. 7A), PC (FIG. 7B), and cholesterol (FIG. 7C).
as §2
To investigate the lipid distribution among the lipoproteins with or without myriocin treatment, FPLC was utilized to fractionize lipoproteins and measured SM, PL, and cholesterol in each fraction.

[6] = chow diet, myriocin 0.3 mg/kg i.p. 8 weeks
[7] = high fat diet, myriocin 0.3 mg/kg i.p. 8 weeks
[8] = high fat, high cholesterol (Western type) diet 8 weeks
[9] = high fat, high cholesterol diet
[10] = chow diet, pooled plasma n=7, FIG. 6
[11] = high fat diet, pooled plasma n=7, FIG. 7

In the case of `CCCCCCC(=O)CCCCCC/C=C/C[C@@H](O)[C@H](O)[C@@](N)(CO)C(=O)O` [Myriocin, myriocin], the “total cholesterol levels, change after myriocin” value (apoE KO mice [1]; chow diet) is reported as “not significantly changed”, the “triglyceride levels, change after myriocin” value (apoE KO mice [1]; chow diet) is reported as “not significantly changed” and the PC/SM (apoE KO mice [1]; [6]) is reported as 12.1 ± 0.2a. The “Plasma Chol” value (apoE KO mice [1]; [6]) was 660 ± 105 mg/dL, the “Plasma TG” value (apoE KO mice [1]; [6]) was 75 ± 19 mg/dL and the “Plasma PC” value (apoE KO mice [1]; [6]) was 399 ± 59^a mg/dl. For the same compound, the “Plasma SM” value (apoE KO mice [1]; chow diet, myriocin 0.3 mg/kg i.p. every other day 8 weeks, mean ± S.D.) was 33 ± 3^a mg/dl, the PC/SM ratio increased (apoE KO mice [1]; chow diet) was 317% and the “plasma PC levels increased” value (apoE KO mice [1]; chow diet) was 91%. For the same compound, the “plasma SM levels decreased” value (apoE KO mice [1]; chow diet, p<0.001) was 54%, the PC/SM (apoE KO mice [1]; [7]) was 16.9 and the “Plasma Chol” value (apoE KO mice [1]; [7]) was 1807 ± 342 mg/dL. For the same compound, the “Plasma TG” value (apoE KO mice [1]; [7]) was 107 ± 27 mg/dL, the “Plasma SM” value (apoE KO mice [1]; [7]) was 47 ± 14^a mg/dl and the “Plasma PC” value (apoE KO mice [1]; [7]) was 795 ± 97^a mg/dl. For the same compound, the “plasma SM levels decreased” value (apoE KO mice [1]; [8]) was 59%, the PC/SM ratio increased (apoE KO mice [1]; [8]) was 380% and the “plasma PC levels increased” value (apoE KO mice [1]; [8]) was 100%. For the same compound, the “total cholesterol levels, change after myriocin” value (apoE KO mice [1]; [9]) was “not significantly changed”, the “triglyceride levels, change after myriocin” value (apoE KO mice [1]; [9]) was “not significantly changed” and the atherosclerotic lesions (apoE KO mice [2]) was “dramatic reduction”. For the same compound, the “plasma SM levels” value (apoE KO mice [2]) was “significant reduction”, the plasma cholesterol levels (apoE KO mice [2]) was “significant reduction” and the “toxicity of oral administration” value [3] was “serious gastrointestinal toxicity”. The “less SPT activity in the liver than the controls” value (SPT) was 50%, the “effect on T-lymphocyte populations in mice” value (T-lymphocyte populations) was “reduces T-lymphocyte populations” and the “levels of apolipoproteins, including apoB100, apoB48, and apoA-I” value (apoE KO mice [4]; chow diet) was “no significant changes”. The “levels of apolipoproteins, including, apoB48, and apoA-I” value (apoE KO mice [4]; [9]) was “no significant changes”, the “PC in FPLC lipoprotein fractions” value (apoE KO mice [5]; [10]) was “increased” and the “SM in FPLC lipoprotein fractions” value (apoE KO mice [5]; [10]) was “significantly decreased”. The “cholesterol in FPLC lipoprotein fractions” value (apoE KO mice [5]; [10]) was “no significant effect”, the “PC in FPLC lipoprotein fractions” value (apoE KO mice [5]; [11]) was “increased” and the “SM in FPLC lipoprotein fractions” value (apoE KO mice [5]; [11]) was “dramatically decreased”. For the same compound, the “cholesterol in FPLC lipoprotein fractions” value (apoE KO mice [5]; [11]) was “no effect”.
